Columns and labels:
[1] = cited from earlier work
[2] = test system: patients with primary hypertension and inadequate BP control; experiment: Precision dosing trial of amlodipine with home blood pressure and e-diary side effects (Example 1)

Structure (SMILES): CCOC(=O)C1=C(COCCN)NC(C)=C(C(=O)OC)C1c1ccccc1Cl (stereo not shown) [amlodipine]
- dose linearity of pharmacokinetics ([1]; FIG. 1, Williams et al 1988): linear across a wide range of doses
- increase in total exposure ([1]; elderly): up to 60%
- variance in average amlodipine blood levels between subjects ([1]; steady-state, same dose): up to 30%
- toxic related side effects leading to treatment discontinuation ([2]; during the trial to date): no toxic related side effects leading to treatment discontinuation were observed
- end mean DBP ([2]; end of study, baseline mean DBP 88 mmHg, 109 patients begun, 39 completed, linear mixed model estimate): 81 mmHg
- end mean SBP ([2]; end of study, baseline mean SBP 146 mmHg, 109 patients begun, 39 completed, linear mixed model estimate): 133 mmHg
- side effects (oedema) by VAS score ([2]; single patient, final dose of 10 mg, VAS 0-100 scale (1-25 mild, 26-50 moderate)): mild to moderate

Reference: patent publication US12653811B2 (CLOSED LOOP MEDICINE LTD, priority 2020, dated 2026)
